Laboratory results from patent US20240043403A1, “HETEROARYL CARBOXAMIDE COMPOUND” (Astellas Pharma Inc., priority 2020, published 2024).

Molecular target: human recombinant DGK ξ (Homo sapiens (Human), UniProt Q13574)
Experiment: Evaluation of DGK ξ inhibitory effect (ADP-Glo Kinase Assay)
Assay type: biochemical
Settings: ADP-Glo luminescence
Description: Test Example 1. Evaluation of DGK ξ Inhibitory Effect
The inhibitory effect of a test compound on human recombinant DGK ξ (Cama Biosciences, Inc., 12-410-20N) was examined by the following method in which detection is performed with ADP-Glo™ Kinase Assay (Promega Corporation).
To a 384-well plate (Greiner Bio-One Co., Ltd.), 3 μL of a DGK ξ enzyme dissolved in an assay buffer (40 mM Tris-HCl pH 7.5, 10 mM MgCl2, 1 mM dithiothreitol (DTT) and 0.1 mg/mL bovine serum albumin (BSA)) (90 ng/mL) was added, and 3 μL of the test compound diluted with the same assay buffer was added so that an intended final concentration was obtained. The mixture was left standing at room temperature for 15 minutes, 3 μL of a substrate (150 μM 1-oleoyl-2-acetyl-sn-glycerol (Sigma-Aldrich Co. LLC), 480 μM phosphatidylserine (Avanti, Inc.) and 150 μM UltraPure-ATP (attached to ADP-Glo)) was then added, and the mixture was left standing at room temperature for 30 minutes to react. Thereafter, 3 μL of an ADP-Glo Reagent was added, and the mixture was left standing at room temperature for 40 minutes to stop the enzyme reaction. Further, 6 μL of a Kinase-Detection Reagent was added, the mixture was left standing at room temperature for 30 minutes, and the luminescence was then measured using ARVO X3 (PerkinElmer, Inc.). The half maximal inhibitory concentration (IC50) was calculated by Sigmoid-Emax model non-linear regression analysis, where the signal value in solvent treatment was set to 0% inhibition and the signal value without addition of the DGK ξ enzyme was set to 100% inhibition. […] In the table. Ex represents the number of each Example described below.

human recombinant DGK ξ, sequence (Q13574 whole entry): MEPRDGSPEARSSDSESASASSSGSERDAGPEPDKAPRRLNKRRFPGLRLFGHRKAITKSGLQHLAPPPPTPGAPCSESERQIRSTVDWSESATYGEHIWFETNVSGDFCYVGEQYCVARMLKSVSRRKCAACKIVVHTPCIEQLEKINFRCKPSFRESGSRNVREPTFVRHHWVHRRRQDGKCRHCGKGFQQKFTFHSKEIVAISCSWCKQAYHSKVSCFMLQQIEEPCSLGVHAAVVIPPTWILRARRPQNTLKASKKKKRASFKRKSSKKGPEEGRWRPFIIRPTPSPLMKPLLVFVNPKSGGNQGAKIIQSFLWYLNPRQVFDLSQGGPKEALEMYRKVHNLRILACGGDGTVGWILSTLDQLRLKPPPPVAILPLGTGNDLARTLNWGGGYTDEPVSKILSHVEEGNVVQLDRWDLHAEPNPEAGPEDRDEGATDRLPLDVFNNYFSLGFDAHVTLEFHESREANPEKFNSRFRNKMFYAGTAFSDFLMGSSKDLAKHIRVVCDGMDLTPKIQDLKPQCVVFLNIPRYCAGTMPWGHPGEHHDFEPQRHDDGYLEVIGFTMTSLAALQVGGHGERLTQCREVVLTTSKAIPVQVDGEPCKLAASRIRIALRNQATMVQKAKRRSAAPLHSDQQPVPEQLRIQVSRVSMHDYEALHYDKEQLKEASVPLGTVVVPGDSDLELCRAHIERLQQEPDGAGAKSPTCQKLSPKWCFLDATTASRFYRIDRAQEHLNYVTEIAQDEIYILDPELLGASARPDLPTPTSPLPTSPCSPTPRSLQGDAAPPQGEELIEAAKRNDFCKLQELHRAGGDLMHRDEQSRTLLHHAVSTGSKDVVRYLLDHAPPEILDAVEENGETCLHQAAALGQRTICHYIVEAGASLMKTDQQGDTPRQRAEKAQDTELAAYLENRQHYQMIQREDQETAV

Row | IC50 | Structure (SMILES)
1 | 10 nM | CNC[C@H]1CN(c2c(NC(=O)c3ccn(-c4ccnnc4)n3)ccc(Oc3ccccc3F)c2C(F)(F)F)CCN1C [Example 29, N-[4-(2-fluorophenoxy)-2-{(3S)-4-methyl-3-[(methylamino)methyl]piperazin-1-yl}-3-(trifluoromethyl)phenyl]-1-(pyridazin-4-yl)-1H-pyrazole-3-carboxamide]
2 | 12 nM | NC[C@]1(F)CCCN(c2c(NC(=O)c3ccn(-c4ccnnc4)n3)ccc(Oc3ccccc3F)c2C(F)(F)F)C1 [Example 45]
3 | 6.7 nM | CNC[C@@H]1CN(c2c(NC(=O)c3ccn(-c4ccnnc4)n3)ccc(Oc3ccccc3F)c2C(F)(F)F)CCN1C [Example 47]
4 | 5.8 nM | CNC[C@H]1CN(c2c(NC(=O)c3ccn(-c4ccnnc4)n3)ccc(C3CCCC3)c2C(F)(F)F)CCN1C [Example 48]
5 | 2.9 nM | CNC[C@H]1CN(c2c(NC(=O)c3ccn(-c4ccnnc4)n3)ccc(Oc3ccccc3F)c2Cl)CCN1C [Example 86, N-[3-chloro-4-(2-fluorophenoxy)-2-{(3S)-4-methyl-3-[(methylamino)methyl]piperazin-1-yl}phenyl]-1-(pyridazin-4-yl)-1H-pyrazole-3-carboxamide]
6 | 60 nM | CNC[C@H]1CN(c2c(NC(=O)c3coc(-c4ccnnc4)n3)ccc(OC3CCC3)c2C(F)(F)F)CCN1C [Example 100]
7 | 69 nM | CNC[C@H]1CN(c2c(NC(=O)c3ccn(-c4ccnnc4)n3)ccc(Oc3ccc(F)cc3)c2C(F)(F)F)CCN1C [Example 101]
8 | 210 nM | CNC[C@H]1CN(c2c(NC(=O)c3coc(-c4ccnnc4)n3)ccc(Oc3ccc(F)cc3)c2C(F)(F)F)CCN1C [Example 102]
9 | 46 nM | CNC[C@H]1CN(c2c(NC(=O)c3coc(-c4ccnnc4)n3)ccc(Oc3ccccc3F)c2C2CC2)CCN1C [Example 103]
10 | 37 nM | CNC[C@H]1CN(c2c(NC(=O)c3ccn(-c4ccnnc4)n3)ccc(Oc3ccccc3F)c2C2CC2)CCN1C [Example 104]
11 | 46 nM | CNC[C@H]1CN(c2c(NC(=O)c3coc(-c4ccnnc4)n3)ccc(Oc3ccccc3)c2C(F)(F)F)CCN1C [Example 105]
12 | 7.5 nM | CNC[C@H]1CN(c2c(NC(=O)c3coc(-c4ccnnc4)n3)cc(F)c(Oc3ccccc3)c2F)CCN1C [Example 106]
13 | 220 nM | CNC[C@H]1CN(c2c(NC(=O)c3ccn(CC(F)F)n3)cc(F)c(Oc3ccccc3)c2F)CCN1C [Example 107]
14 | 8.9 nM | CNC[C@H]1CN(c2c(NC(=O)c3ccn(-c4ccnnc4)n3)cc(F)c(Oc3ccccc3)c2F)CCN1C [Example 108]
15 | 110 nM | NC[C@@H]1CCCN(c2c(NC(=O)c3ccn(CC(F)(F)F)n3)ccc(Oc3ccccc3)c2C(F)(F)F)C1 [Example 109, N-{2-[(3S)-3-(aminomethyl)piperidin-1-yl]-4-phenoxy-3-(trifluoromethyl)phenyl}-1-(2,2,2-trifluoroethyl)-1H-pyrazole-3-carboxamide]
16 | 190 nM | NC[C@@H]1CCCN(c2c(NC(=O)c3cccn(CC(F)(F)F)c3=O)ccc(Oc3ccccc3)c2C(F)(F)F)C1 [Example 110]

Row | IC50 | Structure (SMILES)
17 | 280 nM | Cc1cc(C(F)(F)F)n2nc(C(=O)Nc3ccc(Oc4ccccc4)c(C(F)(F)F)c3N3CCC[C@@H](CN)C3)cc2n1 [Example 111]
18 | 52 nM | CN1CCN(c2c(NC(=O)c3ccn(CC(F)F)n3)ccc(Oc3ccccc3F)c2Cl)C[C@@H]1CN [Example 112, N-{2-[(3S)-3-(aminomethyl)-4-methylpiperazin-1-yl]-3-chloro-4-(2-fluorophenoxy)phenyl}-1-(2,2-difluoroethyl)-1H-pyrazole-3-carboxamide]
19 | 21 nM | CN(C)CCOc1cc(-c2c(NC(=O)c3coc(-c4ccnnc4)n3)ccc(OC3CCC3)c2C(F)(F)F)ccn1 [Example 113, N-[4-(cyclobutyloxy)-2-{2-[2-(dimethylamino)ethoxy]pyridin-4-yl}-3-(trifluoromethyl)phenyl]-2-(pyridazin-4-yl)-1,3-oxazole-4-carboxamide]
20 | 37 nM | CN(C)CCOc1cccc(-c2c(NC(=O)c3coc(-c4ccnnc4)n3)ccc(OC3CC3)c2C(F)(F)F)c1 [Example 114]
21 | 7.9 nM | CN(C)[C@@H]1CCN2CCN(c3c(NC(=O)c4coc(-c5ccnnc5)n4)ccc(Oc4ccccc4)c3C(F)(F)F)C[C@@H]12 [Example 115]
22 | 44 nM | CN(C)C[C@H]1CN(c2c(NC(=O)c3coc(-c4ccnnc4)n3)ccc(Oc3ccccc3)c2C(F)(F)F)CCN1C [Example 116]
23 | 1.4 nM | CN(C)[C@@H]1CCN2CCN(c3c(NC(=O)c4ccn(-c5ccnnc5)n4)ccc(Oc4ccccc4F)c3C(F)(F)F)C[C@@H]12 [Example 118]
24 | 41 nM | CN(C)[C@@H]1CCN2CCN(c3c(NC(=O)c4coc(-c5ccnnc5)n4)ccc(OC4CC4)c3C(F)(F)F)C[C@@H]12 [Example 119]
25 | 4.3 nM | CN(C)[C@@H]1CCN2CCN(c3c(NC(=O)c4coc(-c5ccnnc5)n4)ccc(Oc4ccccc4F)c3C(F)(F)F)C[C@@H]12 [Example 120]
26 | 14 nM | CN(C)[C@@H]1CCN2CCN(c3c(NC(=O)c4ccn(-c5ccnnc5)n4)ccc(OC4CC4)c3C(F)(F)F)C[C@@H]12 [Example 121]
27 | 3.2 nM | CNC[C@H]1CN(c2c(NC(=O)c3ccn(-c4ccnnc4)n3)ccc(Oc3ccccc3F)c2C(F)(F)F)CCN1C [Example 122, N-[4-(2-fluorophenoxy)-2-{(3S)-4-methyl-3-[(methylamino)methyl]piperazin1-yl}-3-(trifluoromethyl)phenyl]-1-(pyridazin-4-yl)-1H-pyrazole-3-carboxamide monobutanedioate]
28 | 4 nM | CNC[C@@H]1CN(c2c(NC(=O)c3ccn(-c4ccnnc4)n3)ccc(Oc3ccccc3F)c2C(F)(F)F)CCN1C [Example 123, N-[4-(2-fluorophenoxy)-2-{(3R)-4-methyl-3-[(methylamino)methyl]piperazin1-yl}-3-(trifluoromethyl)phenyl]-1-(pyridazin-4-yl)-1H-pyrazole-3-carboxamide monobutanedioate]
29 | 3.8 nM | CNC[C@H]1CN(c2c(NC(=O)c3ccn(-c4ccnnc4)n3)ccc(C3CCCC3)c2C(F)(F)F)CCN1C [Example 124]
30 | 1.8 nM | CNC[C@H]1CN(c2c(NC(=O)c3ccn(-c4ccnnc4)n3)ccc(Oc3ccccc3F)c2Cl)CCN1C [Example 125]
31 | 6.2 nM | NC[C@]1(F)CCCN(c2c(NC(=O)c3ccn(-c4ccnnc4)n3)ccc(Oc3ccccc3F)c2C(F)(F)F)C1 [Example 126, N-{2-[(3R)-3-(aminomethyl)-3-fluoropiperidin-1-yl]-4-(2-fluorophenoxy)-3-(trifluoromethyl)phenyl}-1-(pyridazin-4-yl)-1H-pyrazole-3-carboxamide monobutanedioate]

Tested on: B16-F1 cells
Experiment: Evaluation of antitumor effect in syngeneic mouse model bearing mouse melanoma cell line B16-F1
Assay type: in vivo
Settings: po, 240 h, 0.03 mg/kg orally once daily for 10 days, C57BL/6J mice bearing B16-F1, read-out: Antitumor effect (relative tumor growth inhibition)
Description: Test Example 3: Evaluation of Antitumor Effect in Syngeneic Mouse Model Bearing Mouse Melanoma Cell Line B16-F1
A cell suspension liquid prepared by suspending B16-F1 cells (ATCC, CRL-6323) in PBS at 2.0×10^6 cells/mL was subcutaneously inoculated into 5-week-old female mice (C57BL/6J from Charles River Laboratories Japan, Inc.) in a volume of 50 μL. 5 days after the inoculation, the mice were grouped in such a manner that there was substantially no difference in tumor volume between groups, and administration of the test compound was started. The test was conducted with a solvent group and a test compound administration group each having 10 mice. 0.5% methylcellulose (Shin-Etsu Chemical Co., Ltd.) was orally administered to the solvent group, and 0.5% methylcellulose mixed with the test compound was orally administered to the test compound administration group. The administration was performed for 10 days once daily, and the tumor diameter and the body weight were measured twice a week. The following expression was used for calculation of the tumor volume.
[tumor volume (mm^3)]=[tumor major diameter […]]×[tumor minor diameter (mm)]^2×0.5
The relative tumor growth inhibition (%) of the test compound was calculated, where the tumor volume of the solvent group immediately before the start of administration was set to 100% inhibition, and the tumor volume of the solvent group on the day after the last administration was set to 0% inhibition. […] In the table, Ex represents the number of each Example described below.

Row | Structure (SMILES) | inhibition in vivo at 0.03 mg/kg
32 | NC[C@]1(F)CCCN(c2c(NC(=O)c3ccn(-c4ccnnc4)n3)ccc(Oc3ccccc3F)c2C(F)(F)F)C1 [Example 45] | 30%

Same assay, conditions: po, 240 h, 0.3 mg/kg orally once daily for 10 days, C57BL/6J mice bearing B16-F1, read-out: Antitumor effect (relative tumor growth inhibition)

Row | Structure (SMILES) | inhibition in vivo at 0.3 mg/kg
33 | CNC[C@H]1CN(c2c(NC(=O)c3ccn(-c4ccnnc4)n3)ccc(Oc3ccccc3F)c2C(F)(F)F)CCN1C [Example 29, N-[4-(2-fluorophenoxy)-2-{(3S)-4-methyl-3-[(methylamino)methyl]piperazin-1-yl}-3-(trifluoromethyl)phenyl]-1-(pyridazin-4-yl)-1H-pyrazole-3-carboxamide] | 41%
34 | CNC[C@@H]1CN(c2c(NC(=O)c3ccn(-c4ccnnc4)n3)ccc(Oc3ccccc3F)c2C(F)(F)F)CCN1C [Example 47] | 42%
35 | CNC[C@H]1CN(c2c(NC(=O)c3ccn(-c4ccnnc4)n3)ccc(C3CCCC3)c2C(F)(F)F)CCN1C [Example 48] | 40%
36 | CNC[C@H]1CN(c2c(NC(=O)c3ccn(-c4ccnnc4)n3)ccc(Oc3ccccc3F)c2Cl)CCN1C [Example 86, N-[3-chloro-4-(2-fluorophenoxy)-2-{(3S)-4-methyl-3-[(methylamino)methyl]piperazin-1-yl}phenyl]-1-(pyridazin-4-yl)-1H-pyrazole-3-carboxamide] | 31%
